Reference: ChEMBL document CHEMBL4765282, “Design, synthesis and biological evaluation of 1H-pyrazolo [3,4-d]pyrimidine derivatives as PAK1 inhibitors that trigger apoptosis, ER stress and anti-migration effect in MDA-MB-231 cells” (Eur J Med Chem, 2020)
Calls of active or inactive are those of the source. The rule behind the calls is not given here.

Columns and labels:
[1] = target: Serine/threonine-protein kinase PAK 1 (Homo sapiens, UniProt Q13153); test: Inhibition of PAK1 (unknown origin) […] measured after 40 mins by ADP-glo kinase assay
Chain of Serine/threonine-protein kinase PAK 1 (Q13153 whole entry): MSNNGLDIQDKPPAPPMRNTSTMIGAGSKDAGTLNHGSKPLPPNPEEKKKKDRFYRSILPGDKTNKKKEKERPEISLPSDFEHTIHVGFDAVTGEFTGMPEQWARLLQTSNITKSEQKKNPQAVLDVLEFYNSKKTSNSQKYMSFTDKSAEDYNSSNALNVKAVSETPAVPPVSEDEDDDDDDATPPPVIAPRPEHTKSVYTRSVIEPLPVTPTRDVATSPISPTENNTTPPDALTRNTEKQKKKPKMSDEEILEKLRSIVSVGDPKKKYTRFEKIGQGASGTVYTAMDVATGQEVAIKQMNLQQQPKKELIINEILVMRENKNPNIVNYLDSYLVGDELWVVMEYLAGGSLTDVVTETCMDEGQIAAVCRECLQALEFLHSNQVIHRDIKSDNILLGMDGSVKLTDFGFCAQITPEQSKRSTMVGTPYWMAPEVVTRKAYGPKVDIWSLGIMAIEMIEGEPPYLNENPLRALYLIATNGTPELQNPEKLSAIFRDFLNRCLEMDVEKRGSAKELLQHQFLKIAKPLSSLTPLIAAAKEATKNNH

[2] = test system: MDA-MB-231; test: Down regulation of PAK1 expression in human MDA-MB-231 cells at 5 uM measured after 24 hrs by immunofluorescence analysis; assay type: functional, cell-based

IC50 [1] [µM]	Compound	Activity [2]
5.74	O=C(NC1CCN(c2ncnc3[nH]ncc23)CC1)c1ccc(C(F)(F)F)cc1	
> 50	O=C(c1ccc(C(F)(F)F)cc1)N1CCC(Nc2ncnc3[nH]ncc23)CC1	
0.56	O=C(Nc1ccccc1Cl)NC1CCN(c2ncnc3[nH]ncc23)CC1	
6.67	S=C(Nc1ccccc1Cl)N1CCC(Nc2ncnc3[nH]ncc23)CC1	
39.5	Cc1ccc(C(=O)N2CCC(Nc3ncnc4[nH]ncc34)CC2)cc1	
17.4	Cc1ccc(NC(=O)N2CCC(Nc3ncnc4[nH]ncc34)CC2)cc1	
4.17	O=C(NC1CCN(c2ncnc3[nH]ncc23)CC1)c1cccc(Cl)c1Cl	
15.8	O=C(Nc1ccc(C(F)(F)F)cc1)N1CCC(Nc2ncnc3[nH]ncc23)CC1	
7.82	O=C(c1ccc(F)cc1)N1CCC(Nc2ncnc3[nH]ncc23)CC1	
8.82	COc1ccc(C(=O)NC2CCN(c3ncnc4[nH]ncc34)CC2)cc1	
> 50	O=C(Nc1cccc2ccccc12)N1CCC(Nc2ncnc3[nH]ncc23)CC1	
7.18	O=C(Nc1cccc(Cl)c1)N1CCC(Nc2ncnc3[nH]ncc23)CC1	
19.6	Cc1ccc(NC(=S)N2CCC(Nc3ncnc4[nH]ncc34)CC2)cc1	
1.24	O=C(Nc1cccc(Cl)c1)NC1CCN(c2ncnc3[nH]ncc23)CC1	
6.77	Cc1cc(C)c(C(=O)NC2CCN(c3ncnc4[nH]ncc34)CC2)c(C)c1	
2.51	O=C(NC1CCN(c2ncnc3[nH]ncc23)CC1)c1cccc(C(F)(F)F)c1	
6.26	Cc1ccccc1C(=O)NC1CCN(c2ncnc3[nH]ncc23)CC1	
5.46	O=C(Nc1ccc(Cl)cc1Cl)N1CCC(Nc2ncnc3[nH]ncc23)CC1	
15.1	COc1ccc(NC(=S)N2CCC(Nc3ncnc4[nH]ncc34)CC2)cc1	
5.24	O=C(NC1CCN(c2ncnc3[nH]ncc23)CC1)c1ccccc1Cl	
> 50	S=C(Nc1cccc2ccccc12)N1CCC(Nc2ncnc3[nH]ncc23)CC1	
6.84	O=C(c1ccccc1Cl)N1CCC(Nc2ncnc3[nH]ncc23)CC1	
7.89	S=C(Nc1cccc(Cl)c1)N1CCC(Nc2ncnc3[nH]ncc23)CC1	
33.2	Cc1ccccc1C(=O)N1CCC(Nc2ncnc3[nH]ncc23)CC1	
2.29	O=C(Nc1ccc(Cl)c(Cl)c1)NC1CCN(c2ncnc3[nH]ncc23)CC1	
16.4	O=C(NC1CCN(c2ncnc3[nH]ncc23)CC1)c1ccc(Br)cc1	
9.44	O=C(c1ccc(Cl)cc1)N1CCC(Nc2ncnc3[nH]ncc23)CC1	
5.24	O=C(Nc1ccccc1Cl)N1CCC(Nc2ncnc3[nH]ncc23)CC1	

More lines, now with the values behind:

Compound	IC50 [1] [µM]	Activity [2]
O=C(Nc1ccc(Cl)c(Cl)c1)N1CCC(Nc2ncnc3[nH]ncc23)CC1	10.8	
COc1ccc(NC(=O)NC2CCN(c3ncnc4[nH]ncc34)CC2)cc1	6.37	
O=C(c1ccc(Br)cc1)N1CCC(Nc2ncnc3[nH]ncc23)CC1	29.2	
O=C(Nc1ccc(Br)cc1)N1CCC(Nc2ncnc3[nH]ncc23)CC1	17.9	
O=C(Nc1ccc(Br)cc1)NC1CCN(c2ncnc3[nH]ncc23)CC1	4.03	
O=C(Nc1ccc(F)cc1F)N1CCC(Nc2ncnc3[nH]ncc23)CC1	5.17	
FC(F)(F)c1cc(NC(=S)N2CCC(Nc3ncnc4[nH]ncc34)CC2)cc(C(F)(F)F)c1	8.71	
Cc1cccc(C)c1NC(=S)N1CCC(Nc2ncnc3[nH]ncc23)CC1	7.36	
O=C(NC1CCN(c2ncnc3[nH]ncc23)CC1)c1ccc(F)cc1	4.54	
COc1ccc(NC(=O)N2CCC(Nc3ncnc4[nH]ncc34)CC2)cc1	13.8	
Cc1cc(C)c(C(=O)N2CCC(Nc3ncnc4[nH]ncc34)CC2)c(C)c1	31.1	
O=C(Nc1ccc(C(F)(F)F)cc1)NC1CCN(c2ncnc3[nH]ncc23)CC1	7.15	
Cc1cccc(C)c1NC(=O)N1CCC(Nc2ncnc3[nH]ncc23)CC1	6.27	
CCn1c(=O)c(-c2ccc(-c3cncs3)cc2Cl)cc2cnc(Nc3ccc(N4CCN(C)CC4)cc3)nc21		Active
O=C(c1cccc(Cl)c1Cl)N1CCC(Nc2ncnc3[nH]ncc23)CC1	6.77	
O=C(Nc1ccc(F)cc1F)NC1CCN(c2ncnc3[nH]ncc23)CC1	1.14	
Cc1cccc(C)c1NC(=O)NC1CCN(c2ncnc3[nH]ncc23)CC1	2.16	
O=C(Nc1cccc2ccccc12)NC1CCN(c2ncnc3[nH]ncc23)CC1	11.1	
O=C(Nc1cc(C(F)(F)F)cc(C(F)(F)F)c1)N1CCC(Nc2ncnc3[nH]ncc23)CC1	9.32	
O=C(c1cccc(C(F)(F)F)c1)N1CCC(Nc2ncnc3[nH]ncc23)CC1	> 50	
Cc1ccc(C(=O)NC2CCN(c3ncnc4[nH]ncc34)CC2)cc1	5.61	
Cc1ccc(NC(=O)NC2CCN(c3ncnc4[nH]ncc34)CC2)cc1	4.71	
